What was measured:
[1] = biological target: Type-2 angiotensin II receptor (Homo sapiens) (UniProt P50052); assay: Binding affinity to recombinant human AT2 receptor at 10 uM after 240 mins by scintillation counting analysis relative to control
[2] = biological target: Procathepsin L (Homo sapiens) (UniProt P07711); assay: Binding affinity to human cathepsin L at 10 uM after 30 mins by fluorescence assay relative to control
[3] = biological target: Prostaglandin E2 receptor EP4 subtype (Homo sapiens) (UniProt P35408); assay: Binding affinity to recombinant human EP4 receptor at 10 uM after 120 mins by scintillation counting analysis relative to control
[4] = biological target: Matrix metalloproteinase-9 (Homo sapiens) (UniProt P14780); assay: Binding affinity to human MMP9 at 10 uM after 90 mins by fluorescence assay relative to control
[5] = biological target: Cathepsin D (Homo sapiens) (UniProt P07339); assay: Binding affinity to human cathepsin D at 10 uM after 30 mins by fluorescence assay relative to control
[6] = biological target: Peroxisome proliferator-activated receptor gamma (Homo sapiens) (UniProt P37231); assay: Binding affinity to recombinant human PPARgamma receptor at 10 uM after 120 mins by scintillation counting analysis relative to control
[7] = biological target: Cannabinoid receptor 1 (Homo sapiens) (UniProt P21554); assay: Binding affinity to recombinant human CB1 at 10 uM after 120 mins by scintillation counting analysis relative to control
[8] = biological target: 5-hydroxytryptamine receptor 1A (Homo sapiens) (UniProt P08908); assay: Binding affinity to recombinant human 5-HT1A receptor at 10 uM after 60 mins by scintillation counting analysis relative to control
[9] = biological target: Neurotensin receptor type 1 (Homo sapiens) (UniProt P30989); assay: Binding affinity to recombinant human NT1 receptor at 10 uM after 60 mins by scintillation counting analysis relative to control
[10] = biological target: NAD-dependent protein deacetylase sirtuin-2 (Homo sapiens) (UniProt Q8IXJ6); assay: Binding affinity to surtuin-2 (unknown origin) at 10 uM by relative to control
[11] = biological target: Disintegrin and metalloproteinase domain-containing protein 17 (Homo sapiens) (UniProt P78536); assay: Binding affinity to recombinant human TACE at 10 uM after 5 mins by fluorescence assay relative to control
Homo sapiens [12] = organism: Homo sapiens; assay: Binding affinity to P2X receptor (unknown origin) at 10 uM relative to control
[13] = biological target: Glucocorticoid receptor (Homo sapiens) (UniProt P04150); assay: Binding affinity to human GR at 10 uM after 360 mins by scintillation counting analysis relative to control
[14] = biological target: Adenosine receptor A3 (Homo sapiens) (UniProt P0DMS8); assay: Binding affinity to recombinant human A3 receptor at 10 uM after 120 mins by scintillation counting analysis relative to control
[15] = biological target: Beta-secretase 2 (Homo sapiens) (UniProt Q9Y5Z0); assay: Binding affinity to BACE-2 (unknown origin) at 10 uM relative to control
Homo sapiens [16] = organism: Homo sapiens; assay: Binding affinity to central-type benzodiazepine receptor (unknown origin) at 10 uM relative to control
[17] = biological target: Tyrosine-protein phosphatase non-receptor type 1 (Homo sapiens) (UniProt P18031); assay: Binding affinity to recombinant human phosphatase 1B at 10 uM after 30 mins by fluorescence assay relative to control
Caspase-3 (Homo sapiens) = Caspase-3 (Homo sapiens) (UniProt P42574); assay: Binding affinity to recombinant human caspase 3 at 10 uM after 60 mins by fluorescence assay relative to control
[18] = biological target: Substance-K receptor (Homo sapiens) (UniProt P21452); assay: Binding affinity to recombinant human NK2 receptor at 10 uM after 60 mins by scintillation counting analysis relative to control
[19] = biological target: Neuropeptide Y receptor type 1 (Homo sapiens) (UniProt P25929); assay: Binding affinity to human Y1 receptor at 10 uM after 120 mins by scintillation counting analysis relative to control
[20] = biological target: Angiotensin-converting enzyme 2 (Homo sapiens) (UniProt Q9BYF1); assay: Binding affinity to recombinant human ACE-2 at 10 uM after 20 mins by fluorescence assay relative to control
[21] = biological target: Muscarinic acetylcholine receptor M3 (Homo sapiens) (UniProt P20309); assay: Binding affinity to recombinant human muscarinic M3 receptor at 10 uM after 60 mins by scintillation counting analysis relative to control
[22] = biological target: Kappa-type opioid receptor (Homo sapiens) (UniProt P41145); assay: Binding affinity to human kappa opioid receptor at 10 uM after 60 mins by scintillation counting analysis relative to control
[23] = biological target: Galanin receptor type 1 (Homo sapiens) (UniProt P47211); assay: Binding affinity to recombinant human GAL1 receptor at 10 uM after 120 mins by scintillation counting analysis relative to control
[24] = test system: Voltage-gated potassium channel; assay: Binding affinity to voltage-gated potassium channel (unknown origin) at 10 uM relative to control; type: protein assay; settings: human
[25] = biological target: 5-hydroxytryptamine receptor 7 (Homo sapiens) (UniProt P34969); assay: Binding affinity to recombinant human 5-HT7 receptor at 10 uM after 120 mins by scintillation counting analysis relative to control
Tryptase (Homo sapiens) = Tryptase (Homo sapiens) (UniProt Q9BZJ3+Q15661+Q9NRR2); assay: Binding affinity to human tryptase at 10 uM after 8 mins by spectrophotometric analysis relative to control; type: protein assay
[26] = biological target: Muscarinic acetylcholine receptor M4 (Homo sapiens) (UniProt P08173); assay: Binding affinity to recombinant human muscarinic M4 receptor at 10 uM after 60 mins by scintillation counting analysis relative to control
[27] = biological target: Somatostatin receptor (Homo sapiens) (UniProt P35346+P30874+P31391+P30872+P32745); assay: Binding affinity to somatostatin receptor (unknown origin) at 10 uM relative to control; type: protein assay
[28] = biological target: Estrogen receptor (Homo sapiens) (UniProt P03372); assay: Binding affinity to human ER at 10 uM after 1200 mins by scintillation counting analysis relative to control
[29] = biological target: Tumor necrosis factor receptor superfamily member 1A (Homo sapiens) (UniProt P19438); assay: Binding affinity to recombinant human TNFalpha receptor at 10 uM after 120 mins by scintillation counting analysis relative to control
[30] = biological target: Pituitary adenylate cyclase-activating polypeptide type I receptor (Homo sapiens) (UniProt P41586); assay: Binding affinity to recombinant human PACAP receptor at 10 uM after 120 mins by scintillation counting analysis relative to control
MAO-A = MAO-A (Homo sapiens, UniProt P21397); assay: Binding affinity to human MAO-A at 10 uM after 20 mins by spectrophotometric analysis relative to control; settings: read-out: Activity
Salmonella typhimurium = assay: Mutagenicity in Salmonella typhimurium TA1535 in absence of rat liver S9 fraction by Ames test; type: toxicity, organism-based; settings: salmonella enterica subsp. enterica serovar typhimurium
[31] = biological target: Gastrin/cholecystokinin type B receptor (Homo sapiens) (UniProt P32239); assay: Binding affinity to recombinant human CCK2 at 10 uM after 60 mins by scintillation counting analysis relative to control
[32] = biological target: M-phase inducer phosphatase 1 (Homo sapiens) (UniProt P30304); assay: Binding affinity to recombinant human phosphatase CDC25A at 10 uM after 20 mins by fluorescence assay relative to control

Chain of Cathepsin D (Homo sapiens) (P07339 65-162 limits assumed): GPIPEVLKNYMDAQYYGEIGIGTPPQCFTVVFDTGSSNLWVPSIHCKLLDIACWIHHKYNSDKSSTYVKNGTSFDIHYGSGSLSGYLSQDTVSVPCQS
Chain of Cathepsin D (Homo sapiens) (P07339 169-412 limits assumed): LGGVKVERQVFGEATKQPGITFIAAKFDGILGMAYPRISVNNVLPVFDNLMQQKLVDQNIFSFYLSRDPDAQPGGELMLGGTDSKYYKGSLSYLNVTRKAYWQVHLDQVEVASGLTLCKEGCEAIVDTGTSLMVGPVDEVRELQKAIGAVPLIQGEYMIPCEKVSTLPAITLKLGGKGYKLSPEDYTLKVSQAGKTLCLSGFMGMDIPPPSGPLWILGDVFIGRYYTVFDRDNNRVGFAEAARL
Chain of Neuropeptide Y receptor type 1 (Homo sapiens) (P25929 whole entry): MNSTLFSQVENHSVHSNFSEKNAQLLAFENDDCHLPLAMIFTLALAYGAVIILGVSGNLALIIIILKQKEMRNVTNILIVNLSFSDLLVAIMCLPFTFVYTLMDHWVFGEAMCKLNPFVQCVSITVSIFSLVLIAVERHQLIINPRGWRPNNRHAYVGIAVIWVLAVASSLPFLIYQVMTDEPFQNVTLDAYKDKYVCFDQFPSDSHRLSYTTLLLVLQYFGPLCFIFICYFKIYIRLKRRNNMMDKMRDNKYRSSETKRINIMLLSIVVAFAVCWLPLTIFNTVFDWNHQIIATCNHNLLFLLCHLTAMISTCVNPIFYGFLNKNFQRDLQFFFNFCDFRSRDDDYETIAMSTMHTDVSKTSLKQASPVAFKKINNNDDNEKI
Chain of Kappa-type opioid receptor (Homo sapiens) (P41145 whole entry): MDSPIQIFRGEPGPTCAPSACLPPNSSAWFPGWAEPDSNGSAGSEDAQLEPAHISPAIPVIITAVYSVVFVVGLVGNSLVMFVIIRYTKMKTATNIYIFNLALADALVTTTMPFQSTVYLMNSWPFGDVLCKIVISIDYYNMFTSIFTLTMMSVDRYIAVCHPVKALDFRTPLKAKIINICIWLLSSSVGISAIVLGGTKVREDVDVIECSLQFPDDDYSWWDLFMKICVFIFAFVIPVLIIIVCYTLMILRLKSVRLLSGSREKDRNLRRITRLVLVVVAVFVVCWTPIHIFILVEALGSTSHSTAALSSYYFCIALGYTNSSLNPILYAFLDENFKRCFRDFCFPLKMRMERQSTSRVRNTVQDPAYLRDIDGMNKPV
Chain of Disintegrin and metalloproteinase domain-containing protein 17 (Homo sapiens) (P78536 whole entry, the tested form may be a part): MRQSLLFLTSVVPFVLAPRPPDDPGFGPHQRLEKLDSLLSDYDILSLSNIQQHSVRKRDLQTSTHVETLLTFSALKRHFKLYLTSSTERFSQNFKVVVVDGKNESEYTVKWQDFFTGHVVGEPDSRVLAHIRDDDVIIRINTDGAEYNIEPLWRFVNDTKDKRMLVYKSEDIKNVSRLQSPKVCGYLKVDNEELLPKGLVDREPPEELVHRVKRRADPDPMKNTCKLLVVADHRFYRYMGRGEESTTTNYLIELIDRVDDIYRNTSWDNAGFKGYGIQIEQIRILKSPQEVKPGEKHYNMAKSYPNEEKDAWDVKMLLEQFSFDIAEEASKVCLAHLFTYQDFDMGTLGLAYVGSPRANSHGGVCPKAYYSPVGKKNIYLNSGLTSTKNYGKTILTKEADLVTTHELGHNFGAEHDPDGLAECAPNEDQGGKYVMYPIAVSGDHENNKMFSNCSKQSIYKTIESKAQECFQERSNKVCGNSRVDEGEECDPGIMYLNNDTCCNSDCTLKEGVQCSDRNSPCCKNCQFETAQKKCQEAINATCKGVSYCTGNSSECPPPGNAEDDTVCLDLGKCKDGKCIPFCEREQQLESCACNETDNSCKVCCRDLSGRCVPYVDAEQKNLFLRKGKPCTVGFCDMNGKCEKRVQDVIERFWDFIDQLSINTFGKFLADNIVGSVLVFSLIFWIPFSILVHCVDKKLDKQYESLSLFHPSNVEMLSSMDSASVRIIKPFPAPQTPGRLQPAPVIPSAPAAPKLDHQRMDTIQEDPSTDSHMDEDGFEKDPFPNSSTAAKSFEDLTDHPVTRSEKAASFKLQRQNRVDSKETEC
Chain of Caspase-3 (Homo sapiens) (P42574 29-175 limits assumed): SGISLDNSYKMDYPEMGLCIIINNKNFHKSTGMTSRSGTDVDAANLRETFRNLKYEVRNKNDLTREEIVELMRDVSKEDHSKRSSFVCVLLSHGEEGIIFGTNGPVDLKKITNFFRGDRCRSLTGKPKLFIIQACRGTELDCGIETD
Chain of Caspase-3 (Homo sapiens) (P42574 176-277 limits assumed): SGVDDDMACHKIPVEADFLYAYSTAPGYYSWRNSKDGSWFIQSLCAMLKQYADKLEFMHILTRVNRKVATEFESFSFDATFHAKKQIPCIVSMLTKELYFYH
Chain of Glucocorticoid receptor (Homo sapiens) (P04150 whole entry): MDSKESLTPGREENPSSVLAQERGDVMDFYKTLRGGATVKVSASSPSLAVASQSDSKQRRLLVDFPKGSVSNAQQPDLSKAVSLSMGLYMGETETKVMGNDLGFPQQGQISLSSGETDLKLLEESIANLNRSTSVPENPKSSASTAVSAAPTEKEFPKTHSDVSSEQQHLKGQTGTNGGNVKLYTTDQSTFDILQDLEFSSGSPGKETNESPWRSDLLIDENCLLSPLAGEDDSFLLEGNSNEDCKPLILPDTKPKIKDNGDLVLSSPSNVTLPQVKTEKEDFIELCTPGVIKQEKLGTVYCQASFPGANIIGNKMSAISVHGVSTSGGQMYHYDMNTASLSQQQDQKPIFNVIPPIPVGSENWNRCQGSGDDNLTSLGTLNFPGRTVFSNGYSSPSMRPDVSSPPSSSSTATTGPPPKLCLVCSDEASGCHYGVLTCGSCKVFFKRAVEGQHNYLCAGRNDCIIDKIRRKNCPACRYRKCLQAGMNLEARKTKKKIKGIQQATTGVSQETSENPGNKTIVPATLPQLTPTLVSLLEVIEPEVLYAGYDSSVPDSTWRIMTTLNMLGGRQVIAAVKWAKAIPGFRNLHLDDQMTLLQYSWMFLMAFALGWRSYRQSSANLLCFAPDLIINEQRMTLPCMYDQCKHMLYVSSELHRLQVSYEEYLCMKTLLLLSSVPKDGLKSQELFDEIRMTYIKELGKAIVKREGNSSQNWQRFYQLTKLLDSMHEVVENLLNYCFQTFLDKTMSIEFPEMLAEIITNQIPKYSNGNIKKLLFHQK
Chain of Gastrin/cholecystokinin type B receptor (Homo sapiens) (P32239 whole entry): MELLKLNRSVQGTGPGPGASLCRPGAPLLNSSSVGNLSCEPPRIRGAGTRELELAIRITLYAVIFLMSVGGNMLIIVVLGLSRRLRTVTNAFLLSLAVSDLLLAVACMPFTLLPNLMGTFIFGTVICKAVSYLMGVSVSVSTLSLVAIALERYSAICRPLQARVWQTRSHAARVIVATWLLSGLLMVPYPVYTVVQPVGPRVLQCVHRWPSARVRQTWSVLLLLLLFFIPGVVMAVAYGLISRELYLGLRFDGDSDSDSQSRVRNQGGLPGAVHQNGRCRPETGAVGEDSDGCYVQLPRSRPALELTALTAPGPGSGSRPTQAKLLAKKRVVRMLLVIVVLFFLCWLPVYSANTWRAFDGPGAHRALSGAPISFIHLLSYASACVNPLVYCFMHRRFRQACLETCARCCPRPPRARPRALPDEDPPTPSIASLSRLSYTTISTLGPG
Chain of Estrogen receptor (Homo sapiens) (P03372 whole entry): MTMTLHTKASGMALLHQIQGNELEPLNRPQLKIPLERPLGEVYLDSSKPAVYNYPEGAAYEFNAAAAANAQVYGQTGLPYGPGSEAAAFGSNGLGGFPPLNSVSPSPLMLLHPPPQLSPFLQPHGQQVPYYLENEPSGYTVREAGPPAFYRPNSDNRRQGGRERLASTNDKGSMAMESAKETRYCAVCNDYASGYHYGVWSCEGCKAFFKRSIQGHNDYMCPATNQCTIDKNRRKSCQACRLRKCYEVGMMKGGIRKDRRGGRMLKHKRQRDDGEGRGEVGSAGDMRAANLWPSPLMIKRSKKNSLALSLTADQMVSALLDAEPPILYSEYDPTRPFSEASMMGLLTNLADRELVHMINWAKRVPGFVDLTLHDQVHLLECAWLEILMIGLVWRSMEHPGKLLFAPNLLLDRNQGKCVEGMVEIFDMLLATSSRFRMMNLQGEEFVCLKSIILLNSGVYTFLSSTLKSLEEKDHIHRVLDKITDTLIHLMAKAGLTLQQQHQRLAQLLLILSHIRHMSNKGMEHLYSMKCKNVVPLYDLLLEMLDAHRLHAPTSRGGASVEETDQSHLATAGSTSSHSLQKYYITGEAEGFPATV
Chain of Cannabinoid receptor 1 (Homo sapiens) (P21554 whole entry): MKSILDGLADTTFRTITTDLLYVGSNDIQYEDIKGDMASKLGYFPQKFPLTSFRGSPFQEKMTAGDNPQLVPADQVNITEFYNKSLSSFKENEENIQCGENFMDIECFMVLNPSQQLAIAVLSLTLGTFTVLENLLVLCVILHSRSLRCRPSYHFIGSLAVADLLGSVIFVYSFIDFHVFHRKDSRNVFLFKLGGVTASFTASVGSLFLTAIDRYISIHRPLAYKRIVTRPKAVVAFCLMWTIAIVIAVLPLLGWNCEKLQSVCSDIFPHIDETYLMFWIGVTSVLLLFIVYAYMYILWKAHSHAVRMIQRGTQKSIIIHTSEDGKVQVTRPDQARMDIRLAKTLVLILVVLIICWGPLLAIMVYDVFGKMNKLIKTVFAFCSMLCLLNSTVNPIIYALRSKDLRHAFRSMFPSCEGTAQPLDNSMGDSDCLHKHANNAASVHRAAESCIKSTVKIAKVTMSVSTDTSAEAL
Chain of Substance-K receptor (Homo sapiens) (P21452 whole entry): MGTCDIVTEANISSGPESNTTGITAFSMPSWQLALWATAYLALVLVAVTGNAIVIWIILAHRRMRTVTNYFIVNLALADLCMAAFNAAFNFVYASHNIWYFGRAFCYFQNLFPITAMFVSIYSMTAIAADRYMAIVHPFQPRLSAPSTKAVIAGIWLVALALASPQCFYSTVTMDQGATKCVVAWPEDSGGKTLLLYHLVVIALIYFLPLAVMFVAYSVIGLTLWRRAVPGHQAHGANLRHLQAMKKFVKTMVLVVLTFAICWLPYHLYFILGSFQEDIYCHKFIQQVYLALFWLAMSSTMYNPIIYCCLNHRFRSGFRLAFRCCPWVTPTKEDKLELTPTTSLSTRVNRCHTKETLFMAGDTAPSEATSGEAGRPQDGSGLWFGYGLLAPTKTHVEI

For `CCOc1c(Cl)cc(C(=O)Nc2ccc(C(=O)O)c(C)c2)cc1OC(C)C`, the Activity [1] was less than 25%, the Activity [2] was less than 25% and the Activity [3] was less than 25%. The Activity [4] was less than 25%, the Activity [5] was less than 25% and the Activity [6] was less than 25%. It also gave an Activity [7] of less than 25%, an Activity [8] of less than 25% and an Activity [9] of less than 25%. For the same molecule, the Activity [10] was less than 25%, the Activity [11] was less than 25% and the Activity (Homo sapiens [12]) was less than 25%. It also gave an Activity [13] of less than 25%, an Activity [14] of less than 25% and an Activity [15] of less than 25%. It also gave an Activity (Homo sapiens [16]) of less than 25%, an Activity [17] of less than 25% and an Activity (Caspase-3 (Homo sapiens)) of less than 25%. The Activity [18] was less than 25%, the Activity [19] was less than 25% and the Activity [20] was less than 25%. It also gave an Activity [21] of less than 25%, an Activity [22] of less than 25% and an Activity [23] of less than 25%. The Activity [24] was “<= 25%”, the Activity [25] was less than 25% and the Activity (Tryptase (Homo sapiens)) was less than 25%. It also gave an Activity [26] of less than 25%, an Activity [27] of less than 25% and an Activity [28] of less than 25%. For the same molecule, the Activity [29] was less than 25%, the Activity [30] was less than 25% and the activity at 20 min, 10 µM (MAO-A) was no more than 25%. For the same molecule, the Activity (Salmonella typhimurium) was “Non-Toxic”, the Activity [31] was less than 25% and the Activity [32] was less than 25%.

From ChEMBL document CHEMBL4184197 (Bioorg Med Chem, 2018)
